Results published in EP1855705B1, “ANTIBIOTIC 107891, ITS FACTORS, PHARMACEUTICALLY ACCEPTABLE SALTS AND COMPOSITIONS, AND USE THEREOF” (Sentinella Pharmaceuticals, Inc. ("Sentinella"), priority 2005, dated 2006).
Converted amounts (≈) assume the structure as drawn.

Columns and labels:
Enterococcus faecium = experiment: MIC, broth microdilution method (NCCLS M7-A5); type: cell-based; settings: 568 Enterococcus faecium cl.isol.

SMILES | MIC (Staph. haemolyticus) | MIC (Enterococcus faecium)
C=C1NC(=O)C(Cc2c[nH]c3ccc(Cl)cc23)NC(=O)C(NC(=O)C(=CC)NC(=O)C(N)C(C)C)CSCC(C(=O)NC2C(=O)N3CCCC3C(=O)NCC(=O)NC(C(=O)NC(C(=O)NC3CSCC4NC(=O)C(CC(N)=O)NC(=O)C(CSCC5NC(=O)C(Cc6ccccc6)NC(=O)C(CS/C=C\NC5=O)NC4=O)NC(=O)CNC(=O)CNC(=O)CNC(=O)C4C(O)C(O)CN4C3=O)C(C)O)CSC2C)NC(=O)C(CC(C)C)NC1=O (stereo not drawn) [Factor A1] | 0,25 µg/ml | –
C=C1NC(=O)C(Cc2c[nH]c3ccc(Cl)cc23)NC(=O)C(NC(=O)C(=CC)NC(=O)C(N)C(C)C)CSCC(C(=O)NC2C(=O)N3CCCC3C(=O)NCC(=O)NC(C(=O)NC(C(=O)NC3CSCC4NC(=O)C(CC(N)=O)NC(=O)C(CSCC5NC(=O)C(Cc6ccccc6)NC(=O)C(CS/C=C\NC5=O)NC4=O)NC(=O)CNC(=O)CNC(=O)CNC(=O)C4CC(O)CN4C3=O)C(C)O)CSC2C)NC(=O)C(CC(C)C)NC1=O (stereo not drawn) [Factor A2] | 0,25 µg/ml | 2 µg/mL (≈ 0.896 µM)
